Read-outs that look alike come from different tables or passages of the source.
How the values were obtained:
[1] = tested on: HuTu 80 cells; test: Mitochondrial membrane potential, JC-10 flow cytometry; assay type: cell-based, human; conditions: 24 h treatment, IC50/2 and IC50
Protocol: In this study, we used the fluorescent dye JC-10 from the Mitochondria Membrane Potential Kit (Sigma, St. Louis, MO, USA). Changes in mitochondrial membrane potential under the influence of lead compounds 5a and 6a were determined at IC50/2 and IC50 concentrations on the HuTu 80 cell line. When JC-10 accumulates in the mitochondrial matrix, it forms fluorescent J-aggregates. Their red fluorescence is characteristic for normal cells with high mitochondrial membrane potential. The reduction in mitochondrial membrane potential in apoptotic cells allows JC-10 to escape out of the mitochondria in a monomeric form which has green fluorescence. The mitochondrial membrane potential of HuTu 80 cells is decreased after 24 h treatment with the lead compounds 5a and 6a. The change becomes more pronounced as the concentrations of the tested compounds approach IC50 (Figure 7).
(§1) Cell Culture. HuTu 80 cells at 1 × 10^6 cells/well in a final volume of 2 mL were seeded into six-well plates. After 48 h of incubation, various concentrations of lead compounds were added to wells.
Mitochondrial Membrane Potential. […] After the cells were rinsed three times and suspended in PBS, the JC-10 fluorescence was observed using flow cytometry (Guava easy Cyte, MERCK, Rahway, NJ, USA).

[2] = tested on: PA-1; test: MTT cytotoxicity, PA-1; assay type: cell-based; conditions: Homo sapiens, read-out: IC50 (µM) Cancer Cell Lines PA-1
Text: (§2) Cells and Materials. For the experiments, we used tumor cell cultures M-HeLa clone 11 (epithelioid carcinoma of the cervix, subline HeLa, clone M-HeLa), HuTu 80, human duodenal adenocarcinoma, Hep-2, human epithelial cells, SH-SY5Y, human neuroblast-like cells, A549, human lung adenocarcinoma, PA-1, human ovarian teratocarcinoma and MCF-7, a human mammary ductal adenocarcinoma from the collection of the Institute of Cytology, Russian Academy of Sciences (St. Petersburg, Russia); human liver cells (Chang liver) were from the collection and the Research Institute of Virology of the Russian Academy of Medical Sciences (Moscow, Russia).
(§3) MTT Assay. The cytotoxic effect on cells was determined using the colorimetric method of cell proliferation—the MTT test. NADP-H-dependent cellular oxidoreductase enzymes can, under certain conditions, reflect the number of viable cells. These enzymes reduce the tetrazolium dye (MTT) 3-(4,5-dimethylthiazol-2-yl)-2,5-diphenyl-tetrazolium bromide to insoluble blue-violet formazan, which crystallizes inside the cell. The amount of formed formazan is proportional to the number of cells with active metabolism. […] Optical density was recorded at 540 nm on an Invitrologic microplate reader (Novosibirsk, Russia). […]
(§4) Statistical analysis. The IC50 values were calculated using the MLA–Quest Graph™ IC50 Calculator (AAT Bioquest, Inc., Sunnyvale, CA, USA), 14 February 2022. […]

[3] = tested on: HuTu 80 cells; test: Induction of apoptosis, flow cytometry (annexin V-Alexa Fluor 647 / propidium iodide); assay type: cell-based, human; conditions: IC50/2 and IC50, 24 h
Protocol: The ability of the new compounds, proposed as antitumor agents, to induce cell death via apoptosis is a critical feature for their potential use in therapy. The apoptosis-inducing effects of lead compounds were investigated using flow cytometry at IC50/2 and IC50 concentrations on the HuTu 80 cell line (Figure 6A).
as §1
Cell Apoptosis Analysis. The cells were harvested at 2000 rpm for 5 min and were then washed twice with ice-cold PBS, and resuspended in binding buffer. Next, the samples were incubated with 5 μL of annexin V-Alexa Fluor 647 (Sigma-Aldrich, St Louis, MO, USA) and 5 μL of propidium iodide for 15 min at room temperature in the dark. Finally, the cells were analyzed using flow cytometry (Guava easy Cyte, MERCK, Rahway, NJ, USA) within 1 h. The experiments were repeated three times.

[4] = tested on: Chang Liver; test: MTT cytotoxicity, normal Chang liver cells; assay type: cell-based, human; conditions: Homo sapiens, Chang liver, 48 h incubation, read-out: IC50 (µM) Normal Cell Line Chang Liver
Text: as §2
(§5) MTT Assay. The cytotoxic effect on cells was determined using the colorimetric method of cell proliferation—the MTT test. NADP-H-dependent cellular oxidoreductase enzymes can, under certain conditions, reflect the number of viable cells. These enzymes reduce the tetrazolium dye (MTT) 3-(4,5-dimethylthiazol-2-yl)-2,5-diphenyl-tetrazolium bromide to insoluble blue-violet formazan, which crystallizes inside the cell. The amount of formed formazan is proportional to the number of cells with active metabolism. Cells were seeded on a 96-well Nunc plate at a concentration of 5 × 10^3 cells per well in a volume of 100 μL of medium and cultured in a CO2 incubator at 37 °C until a monolayer was formed. After the nutrient medium was removed, 100 µL of the test drug solutions at the given dilutions were added to the wells, which were prepared directly in the nutrient medium with the addition of 5% DMSO to improve solubility. After 48 h of incubation of the cells with the tested compounds, the nutrient medium was removed from the plates and 100 µL of the nutrient medium without serum with MTT at a concentration of 0.5 mg/mL was added and incubated for 4 h at 37 °C. Formazan crystals were added 100 µL of DMSO to each well. Optical density was recorded at 540 nm on an Invitrologic microplate reader (Novosibirsk, Russia). The experiments for all compounds were repeated three times.
(§6) Statistical analysis. The IC50 values were calculated using the MLA–Quest Graph™ IC50 Calculator (AAT Bioquest, Inc., Sunnyvale, CA, USA), 14 February 2022. Statistical analysis was performed with the Mann–Whitney test (p < 0.05). Tabular and graphical data contain averages and standard error.

[5] = tested on: MCF-7; test: MTT cytotoxicity, MCF-7; assay type: cell-based; conditions: Homo sapiens, MCF7, read-out: IC50 (µM) Cancer Cell Lines MCF-7
Text: as §2, §3, §4

[6] = tested on: A549; test: MTT cytotoxicity, A549; assay type: cell-based; conditions: Homo sapiens, read-out: IC50 (µM) Cancer Cell Lines A549
Text: as §2, §3, §4

[7] = tested on: HuTu 80; test: MTT cytotoxicity, HuTu 80; assay type: cell-based, human; conditions: for IC50: MTT, 48 h incubation, read-out: IC50 (µM) Cancer Cell Lines HuTu 80
Text: as §2, §5, §6

[8] = tested on: SH-SY5Y; test: MTT cytotoxicity, SH-SY5Y; assay type: cell-based; conditions: Homo sapiens, read-out: IC50 (µM) Cancer Cell Lines SH-SY5Y
Text: as §2, §3, §4

[9] = tested on: Hep-2; test: MTT cytotoxicity, Hep-2; assay type: cell-based; conditions: Homo sapiens, read-out: IC50 (µM) Cancer Cell Lines Hep-2
Text: as §2, §3, §4

[10] = tested on: HuTu 80 cells; test: Intracellular ROS, CellROX Deep Red flow cytometry; assay type: cell-based, human; conditions: IC50/2 and IC50
Protocol: The apoptosis via the mitochondrial pathway also increases the production of reactive oxygen species (ROS). As mitochondria itself becomes the target of ROS, an increase in their production disrupts mitochondrial functions and culminates in irreversible cell damage. Therefore, the effect of lead compounds 6a and 5a at IC50/2 and IC50 concentrations on ROS production in HuTu 80 cells was evaluated using flow cytometry. […] Such an effect is not observed for intact cells in the presence of both compounds, indicating an increase in ROS production in cancer tissues.
Detection of Intracellular ROS. HuTU 80 cells were incubated with lead compounds at concentrations of IC50/2 and IC50 for 48 h. ROS generation was investigated using flow cytometry assay and CellROX® Deep Red flow cytometry kit. For this purpose, […] cells were harvested at 2000 rpm for 5 min and then washed twice with ice-cold PBS, followed by resuspension in 0.1 mL of medium without FBS, to which was added 0.2 μL of CellROX® Deep Red, which was followed by incubation at 37 °C for 30 min. The cells were washed three times and suspended in PBS. After that, the production of ROS in the cells was immediately monitored using flow cytometer (Guava easy Cyte, MERCK, Rahway, NJ, USA).

[11] = tested on: M-HeLa; test: MTT cytotoxicity, M-HeLa; assay type: cell-based, human; conditions: Homo sapiens, M-HeLa; MTT, 48 h incubation; read-out: IC50 (µM) Cancer Cell Lines M-HeLa
Text: as §2, §5, §6

What does the source list for `Cc1cc(O)c(C(CCNC(=O)CCl)c2c(O)cc(C)oc2=O)c(=O)o1` [Compound 5a]?
mitochondrial membrane potential (in words) [1]: decreased; IC50 [2]: 80.2 ± 4.05 µM; apoptosis-inducing effect (in words) [3]: apoptotic effects increase at the early apoptosis stage; IC50 [4]: 139 ± 11 µM; IC50 [5]: 85.6 ± 3.12 µM; IC50 [6]: 82.1 ± 3.56 µM; IC50 ([7]; Homo sapiens, HuTu80, 48 h): 1.7 µM; times more effective / more cytotoxic than the reference drug sorafenib ([7]; HuTu 80): 1.7; IC50 [7]: 1.9 ± 0.2 µM; IC50 [8]: 75.8 ± 2.84 µM; IC50 [9]: 65.8 ± 1.18 µM; ROS production, CellROX Deep Red fluorescence intensity (in words) [10]: significant reliable increase; IC50 [11]: 56.2 ± 4.7 µM
